Experimental data reported in US20010044463A1, “Methods for controlling gram negative bacteria in mammals” (priority 1997, published 2001).
In brackets after ≈: the same amount, converted by molar mass.

Tests used:
Staph ATCC 14775 = test: Blood agar plate growth inhibition, control organism; type: cell-based
Experimental: (§1) Monensin (Sigma Cat. No. M-5273) was dissolved in 100% absolute ethanol (AAPER Alcohol and Chemical Co.) at a concentration of 20 mg/ml. Subsequent dilutions were made in ethanol immediately prior to use. Nigericin (Sigma Cat. No. N-7143) was dissolved in DMSO at 2 mg/ml. Subsequent dilutions were made in BHI medium (Brain heart infusion broth, Difco #0037-07-0) immediately prior to use.
(§2) Blood agar base (BAB) was prepared containing 1.5% agar and autoclaved. 20 ml samples of autoclaved BAB were poured into 50 mL tubes and placed in a 56° C. water bath.
(§3) 100 μl of a drug (final concentration equivalent to 1:200 of original concentration) and 1.2 ml of sheep blood (Colorado Senun Company # CS-1112) (blood diluted in a 1:1 buffer providing a 3% concentration of blood per 20 ml medium sample) were added to 20 ml sample of media and mixed. The mixed media preparation was poured into a petri dished and allowed to solidify.
Prior to inoculation of petri plates, bacteria or cultures were examined for morphology under a phase microscope to confirm motility and physical characteristics, e.g., spiral shaped. The organisms were washed off the plate into PBS (Phosphate buffered saline) (80.0 g NaCl, 2.0 g KCl, 2.4 g KH2PO4 11.5 g Na2HPO4 or 24.4 g Na2HPO4/2H2O per 1 liter deionized water, pH 7.2, sterilized by autoclaving) and diluted into BHI at a concentration of 10^8/ml (O.D. of 0.3 units diluted 1:30). Ten microliters of solution containing 10^6 organisms were spread onto a petri plate and grown under microaerophilic conditions for 3 days unless specified. […]
(§4) Inhibition of growth was determined by the amount of colonies present within the petri plate. The following factors were used for growth inhibition: ±=0-20 colonies, +=20-50 colonies, ++=50-200 colonies and +++=200+ colonies.

[1] = test system: H. pylori (urease negative) (Wild strain of ATCC 43504); test: Minimum Inhibitory Concentration (MIC) blood agar plate growth inhibition; type: cell-based, Helicobacter pylori; settings: Table III
Experimental: as §1, §2, §3
(§5) Prior to inoculation of petri plates, bacteria or cultures were examined for morphology under a phase microscope to confirm motility and physical characteristics, e.g., spiral shaped. The organisms were washed off the plate into PBS (Phosphate buffered saline) (80.0 g NaCl, 2.0 g KCl, 2.4 g KH2PO4 11.5 g Na2HPO4 or 24.4 g Na2HPO4/2H2O per 1 liter deionized water, pH 7.2, sterilized by autoclaving) and diluted into BHI at a concentration of 10^8/ml (O.D. of 0.3 units diluted 1:30). Ten microliters of solution containing 10^6 organisms were spread onto a petri plate and grown under microaerophilic conditions for 3 days unless specified. Control organisms were grown under microaerophilic conditions.
as §4

[2] = test system: H. pylori (urease positive) ATCC Number 51652; test: as above; type: cell-based, Helicobacter pylori; settings: Table VIII
Experimental: as §1, §2, §3, §5, §4

H. pylori ATCC 43504 = test: as above; type: cell-based, Helicobacter pylori
Experimental: Subsequent dilutions were made in ethanol immediately prior to use. […] Subsequent dilutions were made in BHI medium (Brain heart infusion broth, Difco #0037-07-0) immediately prior to use.
as §2
The mixed media preparation was poured into a petri dished and allowed to solidify.
as §5, §4

What does the source list for `CC[C@@]1([C@@H]2O[C@@H]([C@H]3O[C@@](O)(CO)[C@H](C)C[C@@H]3C)C[C@@H]2C)CC[C@H]([C@]2(C)CC[C@]3(C[C@H](O)[C@@H](C)[C@@H]([C@@H](C)[C@@H](OC)[C@H](C)C(=O)O)O3)O2)O1` [Monensin, monensin]?
growth (amount of colonies present within the petri plate) (Staph ATCC 14775; Table XIV, Non-microaerophilic conditions, final drug concentration 0.1 ng/ml): (+++) (+++=200+ colonies); growth (amount of colonies present within the petri plate) (Staph ATCC 14775; Table XIV, Non-microaerophilic conditions, final drug concentration 1 ng/ml): (+++) (+++=200+ colonies); growth (amount of colonies present within the petri plate) (Staph ATCC 14775; Table XIV, Non-microaerophilic conditions, final drug concentration 10 ng/ml): (+++) (+++=200+ colonies); growth (amount of colonies present within the petri plate) (Staph ATCC 14775; Table XIV, Non-microaerophilic conditions, final drug concentration 100 ng/ml): (+++) (+++=200+ colonies); growth (amount of colonies present within the petri plate) (Staph ATCC 14775; Table XIV, Non-microaerophilic conditions, final drug concentration 1 μg/ml): (+++***) (+++=200+ colonies); growth (amount of colonies present within the petri plate) (Staph ATCC 14775; Table XIV, Non-microaerophilic conditions, final drug concentration 10 μg/ml): No growth; growth (amount of colonies present within the petri plate) (Staph ATCC 14775; Table XVI, Non-aerophilic conditions, final drug concentration 0.098 μg/ml): (+++) (+++=200+ colonies); growth (amount of colonies present within the petri plate) (Staph ATCC 14775; Table XVI, Non-aerophilic conditions, final drug concentration 0.195 μg/ml): (+++) (+++=200+ colonies); growth (amount of colonies present within the petri plate) (Staph ATCC 14775; Table XVI, Non-aerophilic conditions, final drug concentration 0.39 μg/ml): (+++) (+++=200+ colonies); growth (amount of colonies present within the petri plate) (Staph ATCC 14775; Table XVI, Non-aerophilic conditions, final drug concentration 0.78 μg/ml): (++) (++=50-200 colonies); growth (amount of colonies present within the petri plate) (Staph ATCC 14775; Table XVI, Non-aerophilic conditions, final drug concentration 1.56 μg/ml): (+)^2 (+=20-50 colonies); growth (amount of colonies present within the petri plate) (Staph ATCC 14775; Table XVI, Non-aerophilic conditions, final drug concentration 3.125 μg/ml): (+)^2 (+=20-50 colonies); growth (amount of colonies present within the petri plate) (Staph ATCC 14775; Table XVI, Non-aerophilic conditions, final drug concentration 6.25 μg/ml): (+)^2 (+=20-50 colonies); growth (amount of colonies present within the petri plate) (Staph ATCC 14775; Table XVI, Non-aerophilic conditions, final drug concentration 12.5 μg/ml): (±)^1 (±=0-20 colonies); growth (amount of colonies present within the petri plate) (Staph ATCC 14775; Table XVI, Non-aerophilic conditions, final drug concentration 25 μg/ml): (±)^1 (±=0-20 colonies); growth (amount of colonies present within the petri plate) (Staph ATCC 14775; Table XVI, Non-aerophilic conditions, final drug concentration 50 μg/ml): No growth; growth (amount of colonies present within the petri plate) (Staph ATCC 14775; Table XVI, Non-aerophilic conditions, final drug concentration 100 μg/ml): No growth; growth (amount of colonies present within the petri plate) ([1]; final drug concentration 0.1 ng/ml): (+++) (+++=200+ colonies); growth (amount of colonies present within the petri plate) ([1]; final drug concentration 1 ng/ml): (+++) (+++=200+ colonies); growth (amount of colonies present within the petri plate) ([1]; final drug concentration 10 ng/ml): (+++) (+++=200+ colonies); growth (amount of colonies present within the petri plate) ([1]; final drug concentration 100 ng/ml): (+++) (+++=200+ colonies); growth (amount of colonies present within the petri plate) ([1]; final drug concentration 1 μg/ml): No growth; growth (amount of colonies present within the petri plate) ([1]; final drug concentration 10 μg/ml): No growth; growth (amount of colonies present within the petri plate) ([2]; final drug concentration 0.098 μg/ml): No growth; growth (amount of colonies present within the petri plate) ([2]; final drug concentration 0.195 μg/ml): No growth; growth (amount of colonies present within the petri plate) ([2]; final drug concentration 0.39 μg/ml): No growth; growth (amount of colonies present within the petri plate) ([2]; final drug concentration 0.78 μg/ml): No growth; growth (amount of colonies present within the petri plate) ([2]; final drug concentration 1.56 μg/ml): No growth; growth (amount of colonies present within the petri plate) ([2]; final drug concentration 3.125 μg/ml): No growth; growth (amount of colonies present within the petri plate) ([2]; final drug concentration 6.25 μg/ml): No growth; growth (amount of colonies present within the petri plate) ([2]; final drug concentration 12.5 μg/ml): No growth; growth (amount of colonies present within the petri plate) ([2]; final drug concentration 25 μg/ml): No growth; growth (amount of colonies present within the petri plate) ([2]; final drug concentration 50 μg/ml): No growth; growth (amount of colonies present within the petri plate) ([2]; final drug concentration 100 μg/ml): No growth; MIC (H. pylori ATCC 43504; Helicobacter pylori, ATCC43504): 0.39 µg/mL (≈ 0.581 µM); growth (amount of colonies present within the petri plate) (H. pylori ATCC 43504; Table I, final drug concentration 0.1 ng/ml): (+++) (+++=200+ colonies); growth (amount of colonies present within the petri plate) (H. pylori ATCC 43504; Table I, final drug concentration 1 ng/ml): (+) (+=20-50 colonies); growth (amount of colonies present within the petri plate) (H. pylori ATCC 43504; Table I, final drug concentration 10 ng/ml): (+) (+=20-50 colonies); growth (amount of colonies present within the petri plate) (H. pylori ATCC 43504; Table I, final drug concentration 100 ng/ml): No growth; growth (amount of colonies present within the petri plate) (H. pylori ATCC 43504; Table I, final drug concentration 1 μg/ml): No growth; growth (amount of colonies present within the petri plate) (H. pylori ATCC 43504; Table I, final drug concentration 10 μg/ml): No growth; growth (amount of colonies present within the petri plate) (H. pylori ATCC 43504; Table II, urease positive, final drug concentration 1 ng/ml): (+++) (+++=200+ colonies); growth (amount of colonies present within the petri plate) (H. pylori ATCC 43504; Table II, urease positive, final drug concentration 100 ng/ml): (+++) (+++=200+ colonies); growth (amount of colonies present within the petri plate) (H. pylori ATCC 43504; Table II, urease positive, final drug concentration 10 μg/ml): No growth; growth (amount of colonies present within the petri plate) (H. pylori ATCC 43504; Table II, urease positive, final drug concentration 0.1 nglml): (+++) (+++=200+ colonies); growth (amount of colonies present within the petri plate) (H. pylori ATCC 43504; Table IV, urease positive, final drug concentration 0.1 ng/ml): (+++) (+++=200+ colonies); growth (amount of colonies present within the petri plate) (H. pylori ATCC 43504; Table IV, urease positive, final drug concentration 1 ng/ml): (+++) (+++=200+ colonies); growth (amount of colonies present within the petri plate) (H. pylori ATCC 43504; Table IV, urease positive, final drug concentration 10 ng/ml): (+++) (+++=200+ colonies); growth (amount of colonies present within the petri plate) (H. pylori ATCC 43504; Table IV, urease positive, final drug concentration 100 ng/ml): (+++) (+++=200+ colonies); growth (amount of colonies present within the petri plate) (H. pylori ATCC 43504; Table IV, urease positive, final drug concentration 1 μg/ml): No growth; growth (amount of colonies present within the petri plate) (H. pylori ATCC 43504; Table IV, urease positive, final drug concentration 10 μg/ml): No growth; growth (amount of colonies present within the petri plate) (H. pylori ATCC 43504; Table V, in the presence of 10 mM urea, final drug concentration 0.1 ng/ml, Nigericin assay done in duplicate): (+++) (+++=200+ colonies); growth (amount of colonies present within the petri plate) (H. pylori ATCC 43504; Table V, in the presence of 10 mM urea, final drug concentration 1 ng/ml, Nigericin assay done in duplicate): (+++) (+++=200+ colonies); growth (amount of colonies present within the petri plate) (H. pylori ATCC 43504; Table V, in the presence of 10 mM urea, final drug concentration 10 ng/ml, Nigericin assay done in duplicate): (+++) (+++=200+ colonies); growth (amount of colonies present within the petri plate) (H. pylori ATCC 43504; Table V, in the presence of 10 mM urea, final drug concentration 100 ng/ml, Nigericin assay done in duplicate): (+++) (+++=200+ colonies); growth (amount of colonies present within the petri plate) (H. pylori ATCC 43504; Table V, in the presence of 10 mM urea, final drug concentration 1 μg/ml, Nigericin assay done in duplicate): No growth; growth (amount of colonies present within the petri plate) (H. pylori ATCC 43504; Table V, in the presence of 10 mM urea, final drug concentration 10 μg/ml, Nigericin assay done in duplicate): No growth; growth (amount of colonies present within the petri plate) (H. pylori ATCC 43504; Table VI, in the presence of 2.5 mM urea, final drug concentration 1 ng/ml): (+++) (+++=200+ colonies); growth (amount of colonies present within the petri plate) (H. pylori ATCC 43504; Table VI, in the presence of 2.5 mM urea, final drug concentration 10 ng/ml): (+++) (+++=200+ colonies); growth (amount of colonies present within the petri plate) (H. pylori ATCC 43504; Table VI, in the presence of 2.5 mM urea, final drug concentration 1 μg/ml): No growth; growth (amount of colonies present within the petri plate) (H. pylori ATCC 43504; Tables IX-XIII, final drug concentration 0.098 μg/ml): (+++) (+++=200+ colonies); growth (amount of colonies present within the petri plate) (H. pylori ATCC 43504; Tables IX-XIII, final drug concentration 0.195 μg/ml): (++) (++=50-200 colonies); growth (amount of colonies present within the petri plate) (H. pylori ATCC 43504; Tables IX-XIII, final drug concentration 0.39 μg/ml): (±) (±=0-20 colonies); growth (amount of colonies present within the petri plate) (H. pylori ATCC 43504; Tables IX-XIII, final drug concentration 0.78 μg/ml): No growth; growth (amount of colonies present within the petri plate) (H. pylori ATCC 43504; Tables IX-XIII, final drug concentration 6.25 μg/ml): No growth; growth (amount of colonies present within the petri plate) (H. pylori ATCC 43504; Tables IX-XIII, final drug concentration 12.5 μg/ml): No growth; growth (amount of colonies present within the petri plate) (H. pylori ATCC 43504; Tables IX-XIII, final drug concentration 25 μg/ml): No growth; growth (amount of colonies present within the petri plate) (H. pylori ATCC 43504; Tables IX-XIII, final drug concentration 50 μg/ml): No growth; growth (amount of colonies present within the petri plate) (H. pylori ATCC 43504; Tables IX-XIII, final drug concentration 100 μg/ml): No growth
